Here are results for five compounds from PMC10104807, “Modulation of tau tubulin kinases (TTBK1 and TTBK2) impacts ciliogenesis” (Scientific Reports, 2023).

Where two headings read alike, the source gives them in different places. A value given as a limit tells only on which side of the number the result lay.

Data set [1] concerns the target T1, MYLK4 (Homo sapiens, UniProt Q86YV6).
T1 construct: purchased Eurofins (radiometric) / Eurofins DiscoverX scanMAX / Reaction Biology / SignalChem
Put plainly: DiscoverX scanMAX binding assay. As to conditions: 1 μM. A digest of the protocol: (§1)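 Each analog was screened once at 1 µM for kinase binding within a 403-member wild-type human panel. Data are given as percent of control; selectivity was also summarised as the count of kinases with PoC < 10.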

The target of data set [2] is T2, MEK4 (Homo sapiens, UniProt P45985).
T2 construct: purchased Eurofins (radiometric) / Eurofins DiscoverX scanMAX / Reaction Biology / SignalChem
Kind of data set: DiscoverX scanMAX binding assay. The following applies: 1 μM. A digest of the protocol: as §1

For data set [3], the target named is T3, MAP3K2 (Homo sapiens, UniProt Q9Y2U5).
T3 construct: purchased Eurofins (radiometric) / Eurofins DiscoverX scanMAX / Reaction Biology / SignalChem
Kind of data set: DiscoverX scanMAX binding assay. The method, boiled down: as §1

Data set [4] has as its target T4, PIKfyve (Homo sapiens, UniProt Q9Y2I7).
T4 construct: purchased Eurofins (radiometric) / Eurofins DiscoverX scanMAX / Reaction Biology / SignalChem
Put plainly: DiscoverX scanMAX binding assay. As to conditions: 1 μM. A digest of the protocol: as §1

In data set [5] the target is T5, MAP3K3 (Homo sapiens, UniProt Q99759).
T5 construct: purchased Eurofins (radiometric) / Eurofins DiscoverX scanMAX / Reaction Biology / SignalChem
Kind of data set: DiscoverX scanMAX binding assay. A digest of the protocol: as §1

The target of data set [6] is T6, PRKX (Homo sapiens, UniProt P51817).
T6 construct: purchased Eurofins (radiometric) / Eurofins DiscoverX scanMAX / Reaction Biology / SignalChem
Put plainly: DiscoverX scanMAX binding assay. The method, boiled down:
as §1

The target in data set [7] is T7, JAK2(JH1domain-catalytic) (Homo sapiens, UniProt O60674).
T7 construct: JAK2(JH1domain-catalytic); purchased Eurofins (radiometric) / Eurofins DiscoverX scanMAX / Reaction Biology / SignalChem
Put plainly: DiscoverX scanMAX binding assay. The method, boiled down: as §1

The target of data set [8] is T8, PAK7 (Homo sapiens, UniProt Q9P286).
T8 construct: purchased Eurofins (radiometric) / Eurofins DiscoverX scanMAX / Reaction Biology / SignalChem
Put plainly: DiscoverX scanMAX binding assay. A digest of the protocol: as §1

Data set [9] addresses T9, PAK4 (Homo sapiens, UniProt O96013).
T9 construct: purchased Eurofins (radiometric) / Eurofins DiscoverX scanMAX / Reaction Biology / SignalChem
Put plainly: DiscoverX scanMAX binding assay. A digest of the protocol: as §1

Data set [10] concerns the target T10, PAK6 (Homo sapiens, UniProt Q9NQU5).
T10 construct: purchased Eurofins (radiometric) / Eurofins DiscoverX scanMAX / Reaction Biology / SignalChem
Put plainly: DiscoverX scanMAX binding assay. A digest of the protocol: as §1

For data set [11], the system named is TTBK1. Details: method as in PMID 33944571. The following applies: read-out: TTBK1 IC50 (Biogen biochemical assay); cited from earlier work.
Data set [12] deals with TTBK2. Also noted: method as in earlier work. The following applies: screened at 1 μM; cited from earlier work.
Data set [13] has as its system TTBK1. Details: method as in earlier work. As to conditions: screened at 1 μM; cited from earlier work.
Data set [14] concerns the target T11, CSNK1D (Homo sapiens, UniProt P48730).
T11 construct: purchased Eurofins (radiometric) / Eurofins DiscoverX scanMAX / Reaction Biology / SignalChem
Kind of data set: DiscoverX scanMAX binding assay. As to conditions: 1 μM. The method, boiled down: as §1

Data set [15] has as its target T12, PRKCE (Homo sapiens, UniProt Q02156).
T12 construct: purchased Eurofins (radiometric) / Eurofins DiscoverX scanMAX / Reaction Biology / SignalChem
Put plainly: DiscoverX scanMAX binding assay. The following applies: 1 μM. A digest of the protocol:
as §1

Data set [16] deals with T13, RPS6KA4(Kin.Dom.2-C-terminal) (Homo sapiens, UniProt O75676).
T13 construct: RPS6KA4(Kin.Dom.2-C-terminal); purchased Eurofins (radiometric) / Eurofins DiscoverX scanMAX / Reaction Biology / SignalChem
Put plainly: DiscoverX scanMAX binding assay. The following applies: 1 μM. A digest of the protocol:
as §1

For data set [17], the target named is T14, TTBK1 kinase domain (Homo sapiens, UniProt Q5TCY1).
T14 construct: Either the TTBK1 or TTBK2 kinase domain at 2 µM
Kind of data set: Thermal shift assay. As to conditions: kinase domain 2 µM, inhibitor 10 µM. Format: binding. As for the experimental part:
A Real-Time PCR Mx3005p machine (Stratagene) was used to measure the fluorescence spectrum. The Tm shift assays and data evaluation for melting temperatures were performed according to the previously described protocol.

Data set [18] concerns the target T15, NLuc-TTBK2 (Homo sapiens, UniProt Q6IQ55).
T15 construct: host or cells: HEK293
Put plainly: TTBK2 NanoBRET cellular target engagement assay in HEK293 cells. Format: cell-based. As for the experimental part:
(§2) HEK293 cells were transfected with constructs of TTBK1 or TTBK2 tagged with NLuc on the N- or C-terminus as previously described[43] Constructs for NanoBRET measurements of TTBK1 (NLuc-TTBK1 and TTBK1-NLuc) and TTBK2 (NLuc-TTBK2 and TTBK2-NLuc) were kindly provided by Promega. NLuc orientations used in the respective assays are indicated. Cells were plated in 96-well tissue culture treated plates (Corning 3917) at a cell density of 2 × 10^5 cells/mL, with a total volume of 100 μL per well in DMEM. […] NanoBRET plates were read after addition of 50 μL of a stock solution (3X) containing NanoBRET NanoGlo substrate (Promega N2161), extracellular NanoLuc inhibitor (Promega N2161) and Opti-MEM. For a 96-well plate the 3X stock solution was prepared with 30 μL of NanoBRET NanoGlo substrate, 10 μL of extracellular NanoLuc inhibitor, and 4960 μL of Opti-MEM without phenol red. […] HEK293 cells were transfected with NLuc-TTBK1 or NLuc-TTBK2. […] One biological replicate was plotted in GraphPad Prism with log[inhibitor] vs. response (three parameters) and included in Fig. 3C. NanoBRET assays were carried out in dose-response format as described previously. NLuc orientations used in the respective assays are as follows: NLuc-TTBK1, NLuc-TTBK2, and PIP4K2C-NLuc (for PI5[…]γ). […] Data are reported as IC50 ± standard error mean (SEM). For PI5[…]γ, 9 was tested in 12-point dose-response format with a top concentration of 10 μM (data in Table S2). One biological replicate was plotted in GraphPad Prism with log[inhibitor] vs. response (three parameters).
(BRET reads energy transfer from a luciferase to a nearby fluorophore.)

In data set [19] the target is T16, NLuc-TTBK1 (Homo sapiens, UniProt Q5TCY1).
T16 construct: host or cells: HEK293
Kind of data set: TTBK1 NanoBRET cellular target engagement assay in HEK293 cells. It is filed as cell-based. The following applies: 2 μM tracer 29. The procedure: as §2

The nature of data set [20]: Kinetic solubility (Analiza). Format: physicochemical. As to conditions: PBS pH 7.4, from 10 mM DMSO stocks. From the text:
Calculated solubility values in Table 2 have been corrected for background nitrogen present in the DMSO and media.

The mark [21] stands for this setting: intact HEK293 cells, 2 μM tracer 29, read-out: TTBK2 intact cell NB IC50.
Setting [22] is: permeabilized HEK293 cells (digitonin), 2 μM tracer 29, read-out: TTBK2 permeabilized cell NB IC50.
[23] abbreviates: intact HEK293 cells, read-out: TTBK1 intact cell NB IC50.
[24] abbreviates: permeabilized HEK293 cells (digitonin), read-out: TTBK1 permeabilized cell NB IC50.

T15 sequence (Q6IQ55 whole entry): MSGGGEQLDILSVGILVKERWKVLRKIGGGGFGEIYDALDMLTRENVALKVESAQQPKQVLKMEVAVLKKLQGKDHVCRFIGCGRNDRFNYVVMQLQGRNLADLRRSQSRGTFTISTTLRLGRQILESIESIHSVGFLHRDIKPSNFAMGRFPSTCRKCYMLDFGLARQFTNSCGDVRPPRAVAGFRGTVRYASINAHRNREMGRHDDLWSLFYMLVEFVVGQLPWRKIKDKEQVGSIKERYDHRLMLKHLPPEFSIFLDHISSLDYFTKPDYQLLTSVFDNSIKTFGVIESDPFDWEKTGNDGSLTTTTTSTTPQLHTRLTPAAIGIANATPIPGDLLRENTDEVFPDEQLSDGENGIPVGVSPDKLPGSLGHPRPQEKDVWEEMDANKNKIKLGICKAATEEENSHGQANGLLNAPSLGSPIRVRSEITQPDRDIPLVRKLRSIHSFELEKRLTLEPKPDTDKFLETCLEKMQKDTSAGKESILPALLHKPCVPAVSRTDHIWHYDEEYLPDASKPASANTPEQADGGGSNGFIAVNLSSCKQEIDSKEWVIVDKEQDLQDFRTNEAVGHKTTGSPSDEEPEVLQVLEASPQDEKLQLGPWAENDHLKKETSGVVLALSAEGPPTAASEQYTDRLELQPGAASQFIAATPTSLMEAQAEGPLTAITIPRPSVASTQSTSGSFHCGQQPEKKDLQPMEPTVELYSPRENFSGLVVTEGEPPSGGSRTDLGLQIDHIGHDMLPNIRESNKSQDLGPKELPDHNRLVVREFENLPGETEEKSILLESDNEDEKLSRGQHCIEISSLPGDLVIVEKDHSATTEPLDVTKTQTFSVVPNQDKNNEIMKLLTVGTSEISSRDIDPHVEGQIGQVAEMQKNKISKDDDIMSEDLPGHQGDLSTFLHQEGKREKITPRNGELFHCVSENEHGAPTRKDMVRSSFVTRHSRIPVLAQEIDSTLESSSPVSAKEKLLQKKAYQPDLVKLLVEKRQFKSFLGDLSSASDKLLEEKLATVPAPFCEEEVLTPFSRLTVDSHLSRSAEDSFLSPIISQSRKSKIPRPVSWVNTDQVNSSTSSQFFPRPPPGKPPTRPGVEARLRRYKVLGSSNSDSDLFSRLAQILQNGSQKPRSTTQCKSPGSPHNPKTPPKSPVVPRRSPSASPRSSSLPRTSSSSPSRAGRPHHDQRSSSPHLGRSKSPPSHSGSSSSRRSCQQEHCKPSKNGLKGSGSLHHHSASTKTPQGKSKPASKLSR
T16 sequence (Q5TCY1 whole entry): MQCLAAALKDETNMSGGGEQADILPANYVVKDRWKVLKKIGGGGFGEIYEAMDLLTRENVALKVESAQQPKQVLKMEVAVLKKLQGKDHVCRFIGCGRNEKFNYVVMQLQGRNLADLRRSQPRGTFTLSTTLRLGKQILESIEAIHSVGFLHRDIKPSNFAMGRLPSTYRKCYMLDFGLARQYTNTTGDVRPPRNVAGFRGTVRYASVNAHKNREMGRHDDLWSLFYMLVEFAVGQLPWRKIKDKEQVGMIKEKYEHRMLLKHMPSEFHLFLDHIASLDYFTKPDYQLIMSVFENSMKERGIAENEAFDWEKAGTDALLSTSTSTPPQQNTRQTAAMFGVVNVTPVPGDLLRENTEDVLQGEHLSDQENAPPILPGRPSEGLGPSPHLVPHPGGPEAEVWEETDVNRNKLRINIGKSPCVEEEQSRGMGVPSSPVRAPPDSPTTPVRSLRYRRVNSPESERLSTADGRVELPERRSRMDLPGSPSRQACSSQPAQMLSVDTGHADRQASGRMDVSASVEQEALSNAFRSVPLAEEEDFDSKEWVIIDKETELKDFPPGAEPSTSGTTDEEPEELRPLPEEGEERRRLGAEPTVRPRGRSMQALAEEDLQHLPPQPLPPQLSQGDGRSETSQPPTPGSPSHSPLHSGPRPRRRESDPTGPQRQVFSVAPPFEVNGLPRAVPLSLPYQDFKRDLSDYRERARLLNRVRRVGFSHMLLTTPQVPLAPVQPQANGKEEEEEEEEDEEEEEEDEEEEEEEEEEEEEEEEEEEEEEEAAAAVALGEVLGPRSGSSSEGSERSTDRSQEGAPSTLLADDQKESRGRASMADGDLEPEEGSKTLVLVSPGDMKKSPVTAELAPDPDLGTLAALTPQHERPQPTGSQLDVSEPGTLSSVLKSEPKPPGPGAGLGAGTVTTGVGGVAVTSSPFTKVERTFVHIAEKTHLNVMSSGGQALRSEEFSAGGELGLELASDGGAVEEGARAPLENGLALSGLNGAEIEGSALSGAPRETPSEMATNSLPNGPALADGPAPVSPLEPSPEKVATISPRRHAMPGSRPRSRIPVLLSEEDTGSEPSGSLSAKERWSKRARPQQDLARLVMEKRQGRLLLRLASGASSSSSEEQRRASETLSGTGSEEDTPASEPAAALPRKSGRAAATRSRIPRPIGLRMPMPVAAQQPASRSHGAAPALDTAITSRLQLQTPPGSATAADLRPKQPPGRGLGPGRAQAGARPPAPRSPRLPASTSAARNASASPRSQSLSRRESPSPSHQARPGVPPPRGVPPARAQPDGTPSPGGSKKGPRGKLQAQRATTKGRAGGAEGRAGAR
T12 sequence (Q02156 whole entry): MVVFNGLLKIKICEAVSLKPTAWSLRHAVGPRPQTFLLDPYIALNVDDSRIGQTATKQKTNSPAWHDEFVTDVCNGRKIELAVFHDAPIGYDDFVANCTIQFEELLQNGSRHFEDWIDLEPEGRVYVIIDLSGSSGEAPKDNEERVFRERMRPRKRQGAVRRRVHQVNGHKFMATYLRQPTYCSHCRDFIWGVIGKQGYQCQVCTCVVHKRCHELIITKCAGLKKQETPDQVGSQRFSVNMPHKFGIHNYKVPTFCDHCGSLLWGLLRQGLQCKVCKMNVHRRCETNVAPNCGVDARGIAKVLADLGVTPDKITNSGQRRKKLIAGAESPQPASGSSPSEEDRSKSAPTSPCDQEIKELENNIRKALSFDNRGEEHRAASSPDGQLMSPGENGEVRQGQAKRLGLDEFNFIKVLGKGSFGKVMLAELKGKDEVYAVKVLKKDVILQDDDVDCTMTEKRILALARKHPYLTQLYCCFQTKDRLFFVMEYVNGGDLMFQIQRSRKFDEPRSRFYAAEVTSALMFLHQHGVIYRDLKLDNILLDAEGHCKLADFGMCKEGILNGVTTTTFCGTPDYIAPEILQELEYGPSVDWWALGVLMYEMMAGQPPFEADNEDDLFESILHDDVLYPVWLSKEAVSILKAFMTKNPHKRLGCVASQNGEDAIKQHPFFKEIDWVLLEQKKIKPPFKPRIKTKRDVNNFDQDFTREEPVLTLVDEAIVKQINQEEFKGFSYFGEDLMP
T7 sequence (O60674 849-1124 limits assumed): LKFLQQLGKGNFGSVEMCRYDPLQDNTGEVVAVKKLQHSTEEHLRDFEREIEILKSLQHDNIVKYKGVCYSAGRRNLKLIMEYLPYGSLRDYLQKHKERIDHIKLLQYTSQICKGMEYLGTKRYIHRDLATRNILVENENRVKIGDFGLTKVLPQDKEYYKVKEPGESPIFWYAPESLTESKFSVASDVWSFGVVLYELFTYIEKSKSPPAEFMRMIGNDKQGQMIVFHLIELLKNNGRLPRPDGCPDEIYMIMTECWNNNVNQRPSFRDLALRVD
T13 sequence (O75676 411-674 limits assumed): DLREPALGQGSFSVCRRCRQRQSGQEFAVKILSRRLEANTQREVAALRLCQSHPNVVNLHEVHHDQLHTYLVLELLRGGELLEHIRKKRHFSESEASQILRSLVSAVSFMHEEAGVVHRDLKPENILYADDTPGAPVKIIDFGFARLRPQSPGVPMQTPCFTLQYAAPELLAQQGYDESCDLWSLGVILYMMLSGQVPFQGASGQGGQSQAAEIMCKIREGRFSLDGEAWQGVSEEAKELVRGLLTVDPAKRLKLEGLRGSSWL
T10 sequence (Q9NQU5 whole entry): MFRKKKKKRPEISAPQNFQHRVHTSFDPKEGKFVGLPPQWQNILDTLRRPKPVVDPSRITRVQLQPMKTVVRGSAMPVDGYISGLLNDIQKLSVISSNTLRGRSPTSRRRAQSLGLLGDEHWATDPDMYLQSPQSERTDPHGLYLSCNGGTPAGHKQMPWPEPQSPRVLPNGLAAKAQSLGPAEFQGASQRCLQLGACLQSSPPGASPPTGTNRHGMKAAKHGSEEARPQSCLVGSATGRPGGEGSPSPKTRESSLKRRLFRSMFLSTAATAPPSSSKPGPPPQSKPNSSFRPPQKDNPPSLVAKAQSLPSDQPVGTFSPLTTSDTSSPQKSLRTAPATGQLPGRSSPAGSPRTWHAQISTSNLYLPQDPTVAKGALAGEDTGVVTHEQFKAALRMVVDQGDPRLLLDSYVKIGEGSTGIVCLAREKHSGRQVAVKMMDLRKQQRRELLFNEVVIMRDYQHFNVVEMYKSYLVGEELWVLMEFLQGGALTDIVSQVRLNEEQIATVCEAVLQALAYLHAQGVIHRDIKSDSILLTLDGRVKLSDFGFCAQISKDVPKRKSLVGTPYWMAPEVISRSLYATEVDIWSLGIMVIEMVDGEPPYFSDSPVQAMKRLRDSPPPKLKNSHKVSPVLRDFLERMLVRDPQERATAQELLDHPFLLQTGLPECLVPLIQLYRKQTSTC
T14 sequence (Q5TCY1 13-320): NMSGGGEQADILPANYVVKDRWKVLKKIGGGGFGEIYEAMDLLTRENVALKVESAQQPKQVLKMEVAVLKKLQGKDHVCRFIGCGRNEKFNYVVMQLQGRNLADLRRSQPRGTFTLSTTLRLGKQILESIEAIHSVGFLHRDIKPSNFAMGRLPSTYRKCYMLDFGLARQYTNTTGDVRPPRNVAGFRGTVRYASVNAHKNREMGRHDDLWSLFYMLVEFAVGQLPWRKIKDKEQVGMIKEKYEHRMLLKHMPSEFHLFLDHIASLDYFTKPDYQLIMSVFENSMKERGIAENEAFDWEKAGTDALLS

As for `CC(C)(O)C#Cc1ccc2[nH]c3c(c2c1)-c1nc(N)ncc1CCC3` [AMG28, reference compound], the “MYLK4 % control at 1000nM / DiscoverX PoC value” in [1] is on record as 2.8 % control. Moreover, the “MEK4 (MKK4) % control at 1000nM / DiscoverX PoC value” in [2] was determined as 8.6 % control. For the same compound, the binding, percent of control at 1 µM in [3] (read-out: MAP3K2 % control at 1000nM) came to 3.7%; in data set [9] (read-out: PAK4 % control at 1000nM), 5.7%. Also, the “PIKFYVE % control at 1000nM / DiscoverX PoC value” in data set [4] is given as 0.4 % control. Also, the percent of control (binding) at 1 µM in data set [5] (read-out: MAP3K3 % control at 1000nM) was 7.2%; in data set [6] (read-out: PRKX % control at 1000nM) it was 4.3%; in [7] (read-out: JAK2(JH1domain-catalytic) % control at 1000nM) it was 6.9%; in data set [10] (read-out: PAK6 % control at 1000nM), 2.9%. In data set [8] (read-out: PAK7 % control at 1000nM), the percent of control (kinase binding) at 1 µM worked out at 0.3%. Also, the IC50 in data set [11] is […]. In [12], the TTBK2 activity remaining is 12%. The TTBK1 activity remaining in [13] is reported as 8%.
With `CC(C)(O)C#Cc1ccc2[nH]c3c(c2c1)-c1nc(N)ncc1CC3` [Compound 1], the “CSNK1D % control at 1000nM / DiscoverX PoC value” in data set [14] was 3 % control. The “MYLK4 % control at 1000nM / DiscoverX PoC value” in data set [1] is reported as 9.4 % control. Besides, in data set [15], the “PRKCE % control at 1000nM” value was found to be 3.1 % control. Further, the “MEK4 (MKK4) % control at 1000nM / DiscoverX PoC value” in data set [2] was found to be 7.3 % control. In addition, in data set [16], the “RPS6KA4(Kin.Dom.2-C-terminal) % control at 1000nM” value is recorded as 7.3 % control. For the same compound, in data set [4], the “PIKFYVE % control at 1000nM / DiscoverX PoC value” came out at 0 % control. In [17], the “ΔTm TTBK1” value came out at 6.1 °C. Further, the IC50 in [18] (setting [21]) was 16 µM; in data set [18] (setting [22]), 3.6 µM; in [19] (setting [23]), greater than 30 µM; in data set [19] (setting [24]) it was 2.5 µM.
For `CC(C)(O)C#Cc1ccc2[nH]c3c(c2c1)-c1nc(N)ncc1CCCC3` [Compound 2], the IC50 in [18] (setting [21]) was greater than 30 µM; in [18] (setting [22]), 17 µM; in data set [19] (setting [23]), greater than 30 µM; in data set [19] (setting [24]), 19 µM.
On to `CC(C)(O)C#Cc1ccc2[nH]cc(-c3ccnc(N)n3)c2c1` [Compound 3], for which the “CSNK1D % control at 1000nM / DiscoverX PoC value” in [14] is recorded as 8.4 % control. Moreover, the “PRKCE % control at 1000nM” value in [15] stood at 6.8 % control. For the same compound, the “RPS6KA4(Kin.Dom.2-C-terminal) % control at 1000nM” value in data set [16] came to 0.1 % control. Also, in [3] (1 μM), the “MAP3K2 % control at 1000nM” value was found to be 0.8 % control. In addition, the “MAP3K3 % control at 1000nM” value in [5] (1 μM) came out at 7.6 % control. The “PRKX % control at 1000nM” value in [6] (1 μM) is listed as 3.5 % control. Also, in [7] (1 μM), the “JAK2(JH1domain-catalytic) % control at 1000nM” value is reported as 0.5 % control. In data set [8] (1 μM), the “PAK7 % control at 1000nM” value is given as 0.4 % control. In data set [9] (1 μM), the “PAK4 % control at 1000nM” value is on record as 8.3 % control. The “PAK6 % control at 1000nM” value in data set [10] (1 μM) was determined as 6.7 % control. Further, the “ΔTm TTBK1” value in data set [17] is 6.9 °C. Also, the IC50 in [18] (setting [21]) came out at 11.7 ± 3.7 µM; in data set [18] (setting [22]), 2.52 ± 0.62 µM; in [18] (tracer titration experiment, 2 μM tracer 29, n = 1, read-out: NL-TTBK2 IC50, tracer titration), 6.9 µM. Moreover, the Kinetic solubility in data set [20] was 133 µM.
In the case of `COC(C)(C)C#Cc1ccc2[nH]c3c(c2c1)-c1nc(N)ncc1CCC3` [Compound 11], the IC50 in data set [18] (setting [21]), in data set [18] (setting [22]), in data set [19] (setting [23]) and in data set [19] (setting [24]) was greater than 30 µM in each case.
